In patent US20210308134A1, “TREATMENT OF EGFR-MUTANT CANCER” (BLUEPRINT MEDICINES CORPORATION, priority 2018, published 2021):

Experiments:
[1] = test system: PC9^CCDC6-RET cells (EGFR del19); assay: Cell proliferation / viability (CellTiter-Glo); format: cell-based
Procedure: (§1) PC9 and MGH134 cells expressing the CCDC6-RET gene fusion or empty vector (EV) were treated with 1 μM osimertinib or vehicle (VEH) and cell proliferation determined over the course of five days (ratio compared to the beginning of treatment). Data shown are the mean±s.e.m. of three independent biological replicates.
(§2) Data are shown as a percentage of vehicle treated control and are the mean±s.e.m of three independent biological replicates.
as §2
(§3) For drug dose-response assays, cells were seeded into 96-well plates 24 hours before addition of drug. Cell proliferation was determined by CellTiter-Glo assay (Promega) 72-120 hours after adding drug, using standard protocols. For time-course experiments, multiple plates were seeded and drugged in identical fashion, and at the indicated time points, the plates were frozen at −80° C.; all plates in an experiment were developed with CellTiter-Glo simultaneously. Luminescence was measured with SpectraMax i3x Multi-Mode Microplate Reader (Molecular Devices).
(§4) To determine whether CCDC6-RET expression is sufficient to cause acquired drug resistance, CCDC6-RET fusion expressing cell line models were generated by lentiviral infection of PC9 (EGFR del19) and MGH134 (EGFR L858R/T790M) cells (FIG. 2).

[2] = test system: MGH134^CCDC6-RET cells (EGFR L858R/T790M)
Procedure: as §1, §2, §3, §4

[3] = test system: PC9 parental cells (EV); assay: Cell proliferation (CellTiter-Glo); format: cell-based; conditions: 1 μM osimertinib, over five days
[4] = test system: MGH134 parental cells (EV); assay: Cell proliferation (CellTiter-Glo); format: cell-based; conditions: 1 μM osimertinib, over five days
[5] = test system: RET, ERK1/2 and AKT phosphorylation in PC9^CCDC6-RET cells; assay: Western blot of downstream signaling; format: cell-based; conditions: 6 hours
Procedure: FIG. 4A is a western blot for PC9^EV and PC9^CCDC6-RET cells treated with 100 nM afatinib, 1 μM osimertinib, Compound 1, or combinations thereof for 6 hours and harvested for western blotting with the antibodies.
FIG. 5A is a western blot for PC^9V and PC9^CCDC6-RET cells treated with 100 nM afatinib, 1 μM osimertinib, cabozanitinib, or combinations thereof for 6 hours and harvested for western blot analysis.
(§5) Afatinib, osimertinib, and cabozantinib were purchased from Selleck Chemicals and resuspended in DMSO. Phospho-EGFR (Y1068), EGFR, pBRAF (Ser445), RET, pAKT (Ser473), AKT, pMEK1/2 (Ser217/221), MEK1/2, pERK1/2 (Thr202/204), ERK1/2, and Actin antibodies were purchased from Cell Signaling Technology. pRET (Y1062) antibody was obtained from Abcam.

[6] = test system: RET, ERK1/2 and AKT phosphorylation in MGH134^CCDC6-RET cells; assay: Western blot of downstream signaling; format: cell-based; conditions: EGFR inhibitor alone (1 μM osimertinib), 6 hours
Procedure: FIG. 4B is a western blot for MGH134^EV and MGH134^CCDC6-RET cells treated with 1 μM osimertinib, cabozantinib, and Compound 1 or combinations thereof for 6 hours and harvested for western blotting with the indicated antibodies.
as §5

[7] = test system: RET oncogenic mutants; conditions: cellular systems; cited from earlier work
[8] = test system: RET-driven models; conditions: several RET-driven models; cited from earlier work
[9] = test system: NSCLC patients with RET-alterations; conditions: Subbiah et al. 2018; cited from earlier work
[10] = 1 μM osimertinib, over five days

SMILES | proliferation rate ([1]; 1 μM osimertinib vs vehicle) | cell proliferation [1, 10] | proliferation rate ([2]; 1 μM osimertinib vs vehicle) | cell proliferation [2, 10] | cell proliferation [3] | cell proliferation [4] | RET, ERK1/2, and AKT phosphorylation ([5]; 100 nM afatinib or 1 μM osimertinib alone) | RET, ERK1/2, and AKT phosphorylation [6] | RET phosphorylation ([5]; Compound 1 alone) | downstream ERK or AKT phosphorylation ([5]; Compound 1 alone) | potency of inhibition of kinase activity [7] | antitumor efficacy [8] | clinical responses [9] | off-target toxicity [9]
C=CC(=O)Nc1cc(Nc2nccc(-c3cn(C)c4ccccc34)n2)c(OC)cc1N(C)CCN(C)C [osimertinib] | decreased | continued to proliferate | decreased | continued to proliferate | net decrease in cell viability | net decrease in cell viability | retained | retained | – | – | – | – | – | –
CO[C@]1(C(=O)N[C@@H](C)c2ccc(-n3cc(F)cn3)nc2)CC[C@H](c2nc(C)cc(Nc3cc(C)[nH]n3)n2)CC1 [Compound 1, (1S,4R)—N—((S)-1-(6-(4-fluoro-1H-pyrazol-1-yl)pyridine-3-yl)ethyl)-1-methoxy-4-(4-methyl-6-((5-methyl-1H-pyrazol-3-yl)amino)pyrimidin-2-yl)cyclohexanecarboxamide] | – | – | – | – | – | – | – | – | suppressed | did not decrease | low nanomolar potency | dose-dependent antitumor efficacy | durable clinical responses | without notable off-target toxicity
